This note sets out measurements from ChEMBL document CHEMBL3124891, “Tetrahydroquinoline derivatives as potent and selective factor XIa inhibitors” (J Med Chem, 2014).

Activity calls are given as the source filed them. The rule behind the calls is not given here.

One experiment deals with Coagulation factor X (Homo sapiens, UniProt P00742). The experiment is described as follows: Binding affinity to human factor 10a assessed as release of p-nitroaniline after 10 to 120 mins by spectrophotometric analysis.
Chain of Coagulation factor X (P00742 41-179 limits assumed): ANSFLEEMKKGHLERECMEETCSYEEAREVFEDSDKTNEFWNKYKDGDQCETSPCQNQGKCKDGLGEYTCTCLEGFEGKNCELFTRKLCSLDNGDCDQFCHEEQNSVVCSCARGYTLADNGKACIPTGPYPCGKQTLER
Chain of Coagulation factor X (P00742 235-488 limits assumed): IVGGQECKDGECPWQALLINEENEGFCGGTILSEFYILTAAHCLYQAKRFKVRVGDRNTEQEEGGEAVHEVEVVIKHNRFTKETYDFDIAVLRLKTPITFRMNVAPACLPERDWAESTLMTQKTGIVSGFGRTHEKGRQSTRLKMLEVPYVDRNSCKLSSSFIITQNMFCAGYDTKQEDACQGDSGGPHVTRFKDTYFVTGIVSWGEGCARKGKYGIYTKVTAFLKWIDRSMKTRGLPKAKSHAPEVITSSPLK
The target in another experiment is T1, Coagulation factor VII (Homo sapiens, UniProt P08709).
T1 sequence (P08709 whole entry): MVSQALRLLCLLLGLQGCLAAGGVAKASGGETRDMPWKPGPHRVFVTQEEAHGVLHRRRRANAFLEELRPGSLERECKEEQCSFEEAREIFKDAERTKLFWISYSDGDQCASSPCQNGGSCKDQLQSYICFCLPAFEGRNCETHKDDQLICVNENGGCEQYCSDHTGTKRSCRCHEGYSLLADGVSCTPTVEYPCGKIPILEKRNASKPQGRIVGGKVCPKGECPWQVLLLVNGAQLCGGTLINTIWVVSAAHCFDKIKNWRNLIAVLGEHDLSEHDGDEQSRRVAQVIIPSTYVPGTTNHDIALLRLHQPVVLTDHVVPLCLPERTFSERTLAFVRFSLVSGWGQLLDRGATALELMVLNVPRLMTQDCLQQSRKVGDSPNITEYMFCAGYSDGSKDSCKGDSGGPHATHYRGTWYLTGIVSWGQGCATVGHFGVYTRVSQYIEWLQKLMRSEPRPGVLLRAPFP
The experiment is described as follows: Binding affinity to human factor 7a assessed as release of p-nitroaniline after 10 to 120 mins by spectrophotometric analysis.

Experiment [1] has as its target T2, Coagulation factor XI (Homo sapiens, UniProt P03951). Briefly: Binding affinity to human factor 11a assessed as release of p-nitroaniline after 10 to 120 mins by spectrophotometric analysis.
For experiment [2], the species on record is Homo sapiens. The experiment is described as follows: Selectivity ratio of Ki for human factor 10a to Ki for human factor 11a.
The species named for experiment [3] is Homo sapiens. The experiment is described as follows: Selectivity ratio of Ki for human factor 7a to Ki for human factor 11a.
For the next experiment, the system named is Plasma. Briefly: Anticoagulant activity in human plasma assessed as concentration required to double activated partial thromboplastin time. It counts as functional.
The target of experiment [4] is T2, Coagulation factor XI. Briefly: Mixed-type inhibition of human factor 11a.
In a further experiment the test system is Oryctolagus cuniculus. Briefly: Antithrombotic activity in rabbit arteriovenous-shunt thrombosis model assessed as inhibition of clot formation compound administered as single bolus dose followed by five continuous infusion dose. It counts as functional.
The target in experiment [5] is T2, Coagulation factor XI. The experiment is described as follows: Competitive inhibition of human factor 11a assessed as release of p-nitroaniline after 10 to 120 mins by Michaelis-Menten equation analysis.

T2 sequence (P03951 19-387 limits assumed): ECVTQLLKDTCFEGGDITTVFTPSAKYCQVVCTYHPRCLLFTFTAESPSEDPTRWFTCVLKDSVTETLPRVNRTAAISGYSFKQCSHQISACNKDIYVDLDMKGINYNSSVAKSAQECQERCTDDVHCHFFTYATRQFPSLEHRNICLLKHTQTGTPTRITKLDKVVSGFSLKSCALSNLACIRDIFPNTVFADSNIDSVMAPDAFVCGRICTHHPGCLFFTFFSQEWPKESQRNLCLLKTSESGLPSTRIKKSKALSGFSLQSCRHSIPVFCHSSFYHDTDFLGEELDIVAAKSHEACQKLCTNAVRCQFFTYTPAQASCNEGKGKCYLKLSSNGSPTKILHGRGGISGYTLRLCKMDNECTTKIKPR
T2 sequence (P03951 388-625 limits assumed): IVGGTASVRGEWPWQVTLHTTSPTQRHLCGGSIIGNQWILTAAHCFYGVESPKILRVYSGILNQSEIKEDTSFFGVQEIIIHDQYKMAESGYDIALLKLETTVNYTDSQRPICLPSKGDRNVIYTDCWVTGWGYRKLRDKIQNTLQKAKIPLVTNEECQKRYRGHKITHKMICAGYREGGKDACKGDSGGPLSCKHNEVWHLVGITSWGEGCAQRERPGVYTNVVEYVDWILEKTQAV

Take `C[C@]1(c2ccccc2)C[C@@H](c2cccc(-c3ccc(NS(C)(=O)=O)cc3C(=O)O)c2)Nc2ccc(C(=N)N)cc21` (racemic): the Ki on Coagulation factor X is greater than 15000 nM; on Coagulation factor VII, 237 nM; at Coagulation factor XI [1], 37 nM.
With `CC(C)CNC(=O)c1ccc(-c2ccccc2[C@@H]2C[C@H](c3ccccc3)c3cc(C(=N)N)ccc3N2)c(C(=O)O)c1` (racemic), the figures for the Ratio Ki in the experiment listed under Homo sapiens [2] and in the experiment listed under Homo sapiens [3] were 40 and 4, respectively. The Ki at Coagulation factor X was determined as 1100 nM; on Coagulation factor VII, 95 nM; on Coagulation factor XI [1], 25 nM.
As to `N=C(N)c1ccc2c(c1)[C@@H](c1ccccc1)C[C@@H](c1ccccc1-c1ccccc1C(=O)O)N2` (racemic), the Ki on Coagulation factor X worked out at 1940 nM; on Coagulation factor VII, 2200 nM; on Coagulation factor XI [1], 110 nM.
For `N=C(N)c1ccc2c(c1)[C@@H](c1ccccc1)C[C@@H](c1ccccc1-c1ccc(C(=O)O)cc1C(=O)O)N2` (racemic), the Ratio Ki in the experiment filed under Homo sapiens [2] turned out to be 100; in the experiment filed under Homo sapiens [3] it was 30. The results for the Ki on Coagulation factor X, on Coagulation factor VII and at Coagulation factor XI [1] were 970 nM, 290 nM and 8.5 nM, respectively.
With `N=C(N)c1ccc2c(c1)[C@@H](c1ccccc1)C[C@@H](c1ccccc1-c1ccc(C(=O)O)cc1)N2` (racemic), the Ki at Coagulation factor XI [1] stood at 2400 nM.
With `CC(C)CNC(=O)c1ccc(-c2cccc([C@@H]3C[C@H](c4ccccc4)c4cc(C(=N)N)ccc4N3)c2)c(C(=O)O)c1` (racemic), the Ki at Coagulation factor X was 24 nM; at Coagulation factor VII, 25 nM; on Coagulation factor XI [1], 23 nM.
Regarding `N=C(N)c1ccc2c(c1)[C@@H](c1ccccc1)C[C@@H](c1cccc(-c3ccc(C(=O)O)cc3C(=O)O)c1)N2` (racemic), the figures for the Ratio Ki in the experiment filed under Homo sapiens [2] and in the experiment listed under Homo sapiens [3] were 30 and 20, respectively. The Ki amounted to 130 nM at Coagulation factor X, 89 nM on Coagulation factor VII and 3.9 nM at Coagulation factor XI [1].
With `C[C@]1(c2ccccc2)C[C@@H](c2cccc(-c3ccc(C(=O)O)cc3C(=O)O)c2)Nc2ccc(C(=N)N)cc21` (racemic), the Ki at Coagulation factor X came to 9300 nM; at Coagulation factor VII, 2600 nM; at Coagulation factor XI [1], 61 nM.
For the compound `CC[C@]1(c2ccccc2)C[C@@H](c2cccc(-c3ccc(C(=O)O)cc3C(=O)O)c2)Nc2ccc(C(=N)N)cc21` (racemic), on Coagulation factor XI [1], the Ki turned out to be 830 nM.
Still for that read-out and setting: the value for `CCC[C@]1(c2ccccc2)C[C@@H](c2cccc(-c3ccc(C(=O)O)cc3C(=O)O)c2)Nc2ccc(C(=N)N)cc21` (racemic) was 1960 nM.
On to `C[C@]1(c2ccccc2)C[C@@H](c2cccc(-c3ccc(C(N)=O)cc3C(=O)O)c2)Nc2ccc(C(=N)N)cc21` (racemic), for which the Ki on Coagulation factor X turned out to be 3000 nM; at Coagulation factor VII, 280 nM; on Coagulation factor XI [1], 1.5 nM. Moreover, the EC in the experiment on Plasma was 8.6 µM.
Take `CNC(=O)Nc1ccc(-c2cccc([C@@H]3C[C@](C)(c4ccccc4)c4cc(C(=N)N)ccc4N3)c2)c(C(=O)O)c1` (racemic): the Ki at Coagulation factor X is 1140 nM; on Coagulation factor VII, 451 nM; on Coagulation factor XI [1], 15 nM.
Consider `C[C@]1(c2ccccc2)C[C@@H](c2cccc(-c3ccc(C#N)cc3C(=O)O)c2)Nc2ccc(C(=N)N)cc21` (racemic), for which the Ki on Coagulation factor X was determined as 2060 nM; at Coagulation factor VII, 867 nM; on Coagulation factor XI [1] it was 48 nM.
The matching figures for `C[C@]1(c2ccccc2)C[C@@H](c2cccc(-c3ccc(N)cc3C(=O)O)c2)Nc2ccc(C(=N)N)cc21` (racemic): 3980 nM, 275 nM and 64 nM.
For the compound `COC(=O)c1ccc(-c2cccc([C@@H]3C[C@](C)(c4ccccc4)c4cc(C(=N)N)ccc4N3)c2)c(C(=O)O)c1` (racemic), the inhibition constant Ki at Coagulation factor X stood at 606 nM; on Coagulation factor VII, 442 nM; on Coagulation factor XI [1], 79 nM.
For the compound `C[C@]1(c2ccccc2)C[C@@H](c2cccc(-c3ccccc3C(=O)O)c2)Nc2ccc(C(=N)N)cc21` (racemic), the Ki at Coagulation factor X amounted to 6700 nM; at Coagulation factor VII, 3060 nM; on Coagulation factor XI [1], 110 nM.
The matching figures for `CC(=O)Nc1ccc(-c2cccc([C@@H]3C[C@](C)(c4ccccc4)c4cc(C(=N)N)ccc4N3)c2)c(C(=O)O)c1` (racemic): 5810 nM, 705 nM and 110 nM.
`CNC(=O)c1ccc(-c2cccc([C@@H]3C[C@](C)(c4ccccc4)c4cc(C(=N)N)ccc4N3)c2)c(C(=O)O)c1` (racemic): the Ki was determined as 4100 nM at Coagulation factor X, 1960 nM on Coagulation factor VII and 154 nM on Coagulation factor XI [1].
With `CC(C)NC(=O)c1ccc(-c2cccc([C@@H]3C[C@](C)(c4ccccc4)c4cc(C(=N)N)ccc4N3)c2)c(C(=O)O)c1` (racemic), the Ki on Coagulation factor X stood at 1310 nM; at Coagulation factor VII, 1770 nM; on Coagulation factor XI [1] it was 207 nM.
The matching figures for `CN(C)Cc1ccc(-c2cccc([C@@H]3C[C@](C)(c4ccccc4)c4cc(C(=N)N)ccc4N3)c2)c(C(=O)O)c1` (racemic): greater than 15000 nM, 610 nM and 466 nM.
With `CC(C)(C)NC(=O)c1ccc(-c2cccc([C@@H]3C[C@](C)(c4ccccc4)c4cc(C(=N)N)ccc4N3)c2)c(C(=O)O)c1` (racemic), the results for the Ki at Coagulation factor X, on Coagulation factor VII and at Coagulation factor XI [1] were 6400 nM, 1290 nM and 540 nM, respectively.
As to `C[C@]1(c2ccccc2)C[C@H](c2cccc(-c3ccc(C(N)=O)cc3C(=O)O)c2)Nc2ccc(C(=N)N)cc21` (racemic), the Ki at Coagulation factor X amounted to 8350 nM; at Coagulation factor VII it was 16300 nM; on Coagulation factor XI [1], 26 nM.
The matching figures for `N=C(N)c1ccc2c(c1)[C@@H](c1ccccc1)C[C@@H](c1cc(N)cc(-c3ccccc3C(=O)O)c1)N2` (racemic): 57 nM, 41 nM and 7.6 nM.
As to `C[C@]1(c2ccccc2)C[C@@H](c2cc(N)cc(-c3ccc(C(N)=O)cc3C(=O)O)c2)Nc2ccc(C(=N)N)cc21` (racemic), the Ki on Coagulation factor X amounted to 2250 nM; at Coagulation factor VII, 56 nM; at Coagulation factor XI [1], 0.64 nM. In the experiment on Plasma, the EC is 1.2 µM.
Consider `CC(=O)Nc1cc(-c2ccc(C(N)=O)cc2C(=O)O)cc([C@@H]2C[C@](C)(c3ccccc3)c3cc(C(=N)N)ccc3N2)c1` (racemic), for which the Ki turned out to be 1810 nM on Coagulation factor X, 230 nM on Coagulation factor VII and 1 nM at Coagulation factor XI [1]. Moreover, the EC in the experiment on Plasma worked out at 2.1 µM.
Consider `CCC(=O)Nc1cc(-c2ccc(C(N)=O)cc2C(=O)O)cc([C@@H]2C[C@](C)(c3ccccc3)c3cc(C(=N)N)ccc3N2)c1` (racemic), for which the Ki at Coagulation factor X amounted to 1480 nM; on Coagulation factor VII it was 450 nM; at Coagulation factor XI [1], 0.69 nM. Besides, in the experiment on Plasma, the EC amounted to 3.4 µM.
Consider `CCCC(=O)Nc1cc(-c2ccc(C(N)=O)cc2C(=O)O)cc([C@@H]2C[C@](C)(c3ccccc3)c3cc(C(=N)N)ccc3N2)c1` (racemic), for which the Ki on Coagulation factor X is 641 nM; on Coagulation factor VII it was 520 nM; on Coagulation factor XI [1] it was 0.3 nM. In addition, the EC in the experiment on Plasma was found to be 4.1 µM.
Consider `C[C@]1(c2ccccc2)C[C@@H](c2cc(NC(=O)C3CC3)cc(-c3ccc(C(N)=O)cc3C(=O)O)c2)Nc2ccc(C(=N)N)cc21` (racemic), for which the Ki amounted to 880 nM at Coagulation factor X, 474 nM at Coagulation factor VII and 0.72 nM on Coagulation factor XI [1]. In addition, in the experiment on Plasma, the EC worked out at 4.5 µM.
In the case of `CC(C)CC(=O)Nc1cc(-c2ccc(C(N)=O)cc2C(=O)O)cc([C@@H]2C[C@](C)(c3ccccc3)c3cc(C(=N)N)ccc3N2)c1` (racemic), the figures for the Ki at Coagulation factor X, on Coagulation factor VII and at Coagulation factor XI [1] were 784 nM, 1010 nM and 0.59 nM, respectively. Also, the EC in the experiment on Plasma amounted to 6.1 µM.
Regarding `CC1(c2ccccc2)CC(c2cccc(-c3ccc(C(N)=O)cc3C(=O)O)c2)Nc2ccc(C(=N)N)cc21` (single isomer, unassigned; (+)) [listing 1 of 2 here], the Ki came to 2330 nM on Coagulation factor X, 86 nM on Coagulation factor VII and 0.39 nM on Coagulation factor XI [1].
Regarding `CC1(c2ccccc2)CC(c2cccc(-c3ccc(C(N)=O)cc3C(=O)O)c2)Nc2ccc(C(=N)N)cc21` (single isomer, unassigned; (+)) [listing 2 of 2 here], the Ratio Ki in the experiment filed under Homo sapiens [2] was greater than 1000; in the experiment filed under Homo sapiens [3], 200.
On to `CC(C)CC(=O)Nc1cc(-c2ccc(C(N)=O)cc2C(=O)O)cc(C2CC(C)(c3ccccc3)c3cc(C(=N)N)ccc3N2)c1` (single isomer, unassigned; enantiomer 1), for which the Ki at Coagulation factor X is 5670 nM; on Coagulation factor VII, greater than 10900 nM; at Coagulation factor XI [1], 230 nM.
On to `CC1(c2ccccc2)CC(c2cccc(-c3ccc(C(N)=O)cc3C(=O)O)c2)Nc2ccc(C(=N)N)cc21` (single isomer, unassigned; enantiomer 2), for which the Ki on Coagulation factor X is greater than 15000 nM; on Coagulation factor VII, greater than 15000 nM; on Coagulation factor XI [1], 335 nM.
Regarding `CC(C)CC(=O)Nc1cc(-c2ccc(C(N)=O)cc2C(=O)O)cc(C2CC(C)(c3ccccc3)c3cc(C(=N)N)ccc3N2)c1` (single isomer, unassigned; enantiomer 2), the inhibition entry at Coagulation factor XI [4] and at Coagulation factor XI [5] was “Active” in each case. Moreover, the inhibition result in the experiment with Oryctolagus cuniculus is “Dose-dependent effect”.

Broadly, the Ki is the equilibrium dissociation constant of an inhibitor or competing ligand from its target.
